Experimental data: patent US11071735B2, “Treatment of inflammatory conditions and autoimmune diseases with glucose uptake inhibitors” (Kadmon Corporation, LLC, priority 2017, dated 2021)

How the values were obtained:
Format in all cases: cell-based
GLUT = assay: glycolysis assay (oligomycin + Cell Titer-Glo ATP readout) in HT1080 cells; settings: 10 μM oligomycin, one hour, glycolytically-derived ATP
Text: The combination of inhibitors of both oxidative phosphorylation and glycolysis synergistically suppress cellular ATP levels. Therefore, our assay utilizes the combination of our glucose uptake inhibitors with oligomycin, a well-characterized inhibitor of ATP synthase. Because oligomycin inhibits ATP derived from oxidative phosphorylation, any remaining ATP production is derived from glycolysis. By reading out cellular ATP levels using the Promega
Titer Glo kit, we can assess the extent of glycolysis inhibition by our glucose uptake inhibitors. Using this experimental set-up in HT1080 cancer cells, we determined the IC50 of glycolysis inhibition for the compounds.
(§1) Determination of glucose uptake/GLUT activity (glycolysis assay): HT1080 cells, DLD1 cells (WT and GLUT1−/−) and human CD4+ T cells were plated in 96-well plates. Cells were exposed to the combination of 10 μM Oligomycin (to block mitochondrial-derived ATP) and the glucose uptake inhibitors disclosed herein for one-hour, after which glycolytically-derived ATP was measured with the Cell Titer-Glo assay kit (Promega). Dose-response curves of the glucose uptake inhibitors disclosed herein were used to determine the IC50 for GLUT activity.

GLUT1 = molecular target: T1, GLUT1 (Homo sapiens, UniProt P11166); assay: glycolysis assay in DLD1 WT cells (rely on GLUT1); settings: DLD1-WT cells; 10 μM oligomycin, one hour
T1 construct: endogenous in cells; host or cells: DLD1 WT cancer cells
T1 sequence (P11166 1-492): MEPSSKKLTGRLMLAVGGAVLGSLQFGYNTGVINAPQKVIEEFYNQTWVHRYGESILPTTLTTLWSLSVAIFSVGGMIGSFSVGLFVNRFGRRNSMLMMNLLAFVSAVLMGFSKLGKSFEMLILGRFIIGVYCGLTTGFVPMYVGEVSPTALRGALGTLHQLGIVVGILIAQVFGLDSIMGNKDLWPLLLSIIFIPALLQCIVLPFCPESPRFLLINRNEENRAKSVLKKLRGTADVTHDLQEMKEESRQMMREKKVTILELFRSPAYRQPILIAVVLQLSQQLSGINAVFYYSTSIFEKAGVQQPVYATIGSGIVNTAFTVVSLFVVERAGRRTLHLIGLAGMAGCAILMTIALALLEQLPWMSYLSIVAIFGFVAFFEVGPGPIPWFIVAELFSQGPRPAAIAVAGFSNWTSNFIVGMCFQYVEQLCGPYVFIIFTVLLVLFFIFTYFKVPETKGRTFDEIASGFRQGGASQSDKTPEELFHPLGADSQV
Method: (§2) Cells were treated with GLUT inhibitors plus oligomycin and subsequently ATP levels were determined using Cell Titer Glo. […] FIG. 1B reports the IC50 of glycolysis inhibition for selected compounds.
(§3) Accordingly, we have investigated the use of inhibitors of GLUT transporters against activated pro-inflammatory immune cells, including but not limited to activated human CD4+ T cells. In order to understand what GLUT transporters are required to sustain glycolysis in activated T cells, we first utilized the syngeneic cancer cell lines DLD1 WT and DLD GLUT1−/− that rely on GLUT1 and GLUT3 expression, respectively, for glucose transport. Within this system, we have identified small molecules that simultaneously have the property of inhibiting both GLUT1 and GLUT3 mediated glucose transport. In addition, we have confirmed the GLUT1-selective nature of a published small molecule inhibitor of GLUT1 (Chem Med Chem. 2016 Oct. 19; 11(20):2261-2271).
as §1

GLUT3 = molecular target: T2, GLUT3 (Homo sapiens, UniProt P11169); assay: glycolysis assay in DLD1 GLUT1−/− cells (rely on GLUT3); settings: DLD1-KO (GLUT1−/−) cells; 10 μM oligomycin, one hour
T2 construct: endogenous in cells; host or cells: DLD1 GLUT1−/− (knock-out) cancer cells
T2 sequence (P11169 1-496): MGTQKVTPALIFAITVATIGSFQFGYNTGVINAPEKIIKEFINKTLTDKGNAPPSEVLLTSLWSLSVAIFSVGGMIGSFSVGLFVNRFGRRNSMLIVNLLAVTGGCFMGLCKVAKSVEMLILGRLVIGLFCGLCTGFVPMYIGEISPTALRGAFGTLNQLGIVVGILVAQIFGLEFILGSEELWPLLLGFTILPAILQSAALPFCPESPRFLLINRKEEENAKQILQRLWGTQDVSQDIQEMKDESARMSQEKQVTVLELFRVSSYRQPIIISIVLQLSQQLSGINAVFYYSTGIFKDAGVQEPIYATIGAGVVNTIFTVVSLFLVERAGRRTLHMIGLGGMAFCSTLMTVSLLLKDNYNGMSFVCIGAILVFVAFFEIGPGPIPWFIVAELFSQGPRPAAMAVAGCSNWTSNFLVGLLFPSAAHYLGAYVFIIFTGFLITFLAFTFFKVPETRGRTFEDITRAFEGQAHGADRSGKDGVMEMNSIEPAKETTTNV
Method: as §2, §3, §1

| SMILES | IC50 (GLUT) | IC50 (GLUT1) | IC50 (GLUT3) |
| --- | --- | --- | --- |
| CCOc1ccc2nc(-c3cccc(OCC(=O)NC4CC4)c3)nc(Nc3ccc(-c4cn[nH]c4)cc3)c2c1 [Ex. 1, 2-(3-(4-((4-(1H-pyrazol-4-yl)phenyl)amino)-6-ethoxyquinazolin-2-yl)phenoxy)-N-cyclopropylacetamide] | 242 nM | 52 nM | 129 nM |
| CCOc1ccc2nc(-c3cccc(OCC(=O)NC(C)(C)C)c3)nc(Nc3ccc(-c4cn[nH]c4)cc3)c2c1 [Ex. 3, 2-(3-(4-((4-(1H-pyrazol-4-yl)phenyl)amino)-6-ethoxyquinazolin-2-yl)phenoxy)-N-(tert-butyl)acetamide] | 44 nM | 59.6 nM | 33.6 nM |
| CCOc1ccc2nc(-c3cccc(OCC(=O)NC(C)(C)CC)c3)nc(Nc3ccc(-c4cn[nH]c4)cc3)c2c1 [Ex. 4, 2-(3-(4-((4-(1H-pyrazol-4-yl)phenyl)amino)-6-ethoxyquinazolin-2-yl)phenoxy)-N-(tert-pentyl)acetamide] | 50 nM | 86 nM | 148 nM |
| CCOc1ccc2nc(-c3cccc(OCC(=O)NC4CCCC4)c3)nc(Nc3ccc(-c4cn[nH]c4)cc3)c2c1 [Ex. 5, 2-(3-(4-((4-(1H-pyrazol-4-yl)phenyl)amino)-6-ethoxyquinazolin-2-yl)phenoxy)-N-cyclopentylacetamide] | 92 nM | 81 nM | 104 nM |
| CCOc1ccc2nc(-c3cccc(OCC(=O)NC4CCC4)c3)nc(Nc3ccc(-c4cn[nH]c4)cc3)c2c1 [Ex. 6, 2-(3-(4-((4-(1H-pyrazol-4-yl)phenyl)amino)-6-ethoxyquinazolin-2-yl)phenoxy)-N-cyclobutylacetamide] | 141 nM | 94 nM | 120 nM |
| CCOc1ccc2nc(-c3cccc(OCC(=O)NC(CC)CC)c3)nc(Nc3ccc(-c4cn[nH]c4)cc3)c2c1 [Ex. 7, 2-(3-(4-((4-(1H-pyrazol-4-yl)phenyl)amino)-6-ethoxyquinazolin-2-yl)phenoxy)-N-(pentan-3-yl)acetamide] | 128 nM | 98 nM | 233 nM |
| COc1ccc2nc(-c3cccc(OCC(=O)NC(C)C)c3)nc(Nc3ccc(-c4cn[nH]c4)cc3)c2c1 [Ex. 8, 2-(3-(4-((4-(1H-pyrazol-4-yl)phenyl)amino)-6-methoxyquinazolin-2-yl)phenoxy)-N-isopropylacetamide] | 173 nM | 261 nM | 97.6 nM |
| COc1ccc2nc(-c3cccc(OCC(=O)NC4CC4)c3)nc(Nc3ccc(-c4cn[nH]c4)cc3)c2c1 [Ex. 9, 2-(3-(4-((4-(1H-pyrazol-4-yl)phenyl)amino)-6-methoxyquinazolin-2-yl)phenoxy)-N-cyclopropylacetamide] | 367 nM | 529 nM | 76.1 nM |
| COc1ccc2nc(-c3cccc(OCC(=O)NC4CCCC4)c3)nc(Nc3ccc(-c4cn[nH]c4)cc3)c2c1 [Ex. 10, 2-(3-(4-((4-(1H-pyrazol-4-yl)phenyl)amino)-6-methoxyquinazolin-2-yl)phenoxy)-N-cyclopentylacetamide] | 58.9 nM | 40.5 nM | 110 nM |
| COc1ccc2nc(-c3cc(F)cc(OCC(=O)NC(C)C)c3)nc(Nc3ccc(-c4cn[nH]c4)cc3)c2c1 [Ex. 11, 2-(3-(4-((4-(1H-pyrazol-4-yl)phenyl)amino)-6-methoxyquinazolin-2-yl)-5-fluorophenoxy)-N-isopropylacetamide] | 1350 nM | 3480 nM | 325 nM |
| CCCNC(=O)COc1cccc(-c2nc(Nc3ccc(-c4cn[nH]c4)cc3)c3cc(OC)ccc3n2)c1 [Ex. 12, 2-(3-(4-((4-(1H-pyrazol-4-yl)phenyl)amino)-6-methoxyquinazolin-2-yl)phenoxy)-N-propylacetamide] | 248 nM | 598 nM | 166 nM |
| COc1ccc2nc(-c3cccc(OCC(=O)NC(C)(C)C)c3)nc(Nc3ccc(-c4cn[nH]c4)cc3)c2c1 [Ex. 13, 2-(3-(4-((4-(1H-pyrazol-4-yl)phenyl)amino)-6-methoxyquinazolin-2-yl)phenoxy)-N-(tert-butyl)acetamide] | 54 nM | 86.9 nM | 38.9 nM |
| COc1ccc2nc(-c3cccc(OCC(=O)NCC(C)C)c3)nc(Nc3ccc(-c4cn[nH]c4)cc3)c2c1 [Ex. 14, 2-(3-(4-((4-(1H-pyrazol-4-yl)phenyl)amino)-6-methoxyquinazolin-2-yl)phenoxy)-N-isobutylacetamide] | 189 nM | 47 nM | 134 nM |
| COc1ccc2nc(-c3cccc(OCC(=O)NC4CC(F)(F)C4)c3)nc(Nc3ccc(-c4cn[nH]c4)cc3)c2c1 [Ex. 15, 2-(3-(4-((4-(1H-pyrazol-4-yl)phenyl)amino)-6-methoxyquinazolin-2-yl)phenoxy)-N-(3,3-difluorocyclobutyl)acetamide] | 183 nM | 352 nM | 86.6 nM |
| CCCNC(=O)COc1cccc(-c2nc(Nc3ccc(-c4cn[nH]c4)cc3)c3cc(OCC)ccc3n2)c1 [Ex. 16, 2-(3-(4-((4-(1H-pyrazol-4-yl)phenyl)amino)-6-ethoxyquinazolin-2-yl)phenoxy)-N-propylacetamide] | 536 nM | 1020 nM | 127 nM |
| CCOc1ccc2nc(-c3cccc(OCC(=O)NCC(C)C)c3)nc(Nc3ccc(-c4cn[nH]c4)cc3)c2c1 [Ex. 17, 2-(3-(4-((4-(1H-pyrazol-4-yl)phenyl)amino)-6-ethoxyquinazolin-2-yl)phenoxy)-N-isobutylacetamide] | 166 nM | 334 nM | 92.2 nM |
| CCOc1ccc2nc(-c3cccc(OCC(=O)NC(C)CC)c3)nc(Nc3ccc(-c4cn[nH]c4)cc3)c2c1 (stereo not drawn) [Ex. 18, 2-(3-(4-((4-(1H-pyrazol-4-yl)phenyl)amino)-6-ethoxyquinazolin-2-yl)phenoxy)-N-(sec-butyl)acetamide] | 89 nM | 99.5 nM | 43.9 nM |
| CCOc1ccc2nc(-c3cccc(OCC(=O)NC4CC(F)(F)C4)c3)nc(Nc3ccc(-c4cn[nH]c4)cc3)c2c1 [Ex. 19, 2-(3-(4-((4-(1H-pyrazol-4-yl)phenyl)amino)-6-ethoxyquinazolin-2-yl)phenoxy)-N-(3,3-difluorocyclobutyl)acetamide] | 169 nM | 257 nM | 66.1 nM |
| COc1ccc2nc(-c3cccc(OCC(=O)NC(C)C)c3)nc(Nc3ccc(-c4cn[nH]c4)cc3F)c2c1 [Ex. 20, 2-(3-(4-((2-fluoro-4-(1H-pyrazol-4-yl)phenyl)amino)-6-methoxyquinazolin-2-yl)phenoxy)-N-isopropylacetamide] | 423 nM | 709 nM | 177 nM |
| CCOc1ccc2nc(-c3cccc(OCC(=O)NC(C)C)c3)nc(Nc3ccc(-c4cn[nH]c4)cc3F)c2c1 [Ex. 21, 2-(3-(6-ethoxy-4-((2-fluoro-4-(1H-pyrazol-4-yl)phenyl)amino)quinazolin-2-yl)phenoxy)-N-isopropylacetamide] | 408 nM | 786 nM | 248 nM |
